Results from US20140038883A1, “NOVEL AZACOUMARIN DERIVATIVES HAVING MDR PUMP INHIBITING ACTIVITY” (UNIVERSITE CLAUDE BERNARD LYON 1, priority 2011, published 2014).

Columns and labels:
S. aureus ATCC 29213 [1] = experiment: Time kill curve method, I.12/ciprofloxacin combination; assay type: cell-based, Staphylococcus aureus; details: ciprofloxacin (0.5 mg/ml and 0.125 mg/m)/I.12 (31 μM); mean of two experiments
Experimental: The time kill curve is performed in 6-well plates. Each well contains 5 ml of MH II broth inoculated with bacteria in the exponential growth phase (final concentrations at 10^6 CFU/ml). The various bacterial growth conditions tested are: • Well 1: 0.5 mg/ml of ciprofloxacin +31 μM of I.12. • Well 2: 0.125 mg/ml of ciprofloxacin +31 μM of I.12. • Well 3: 0.5 mg/ml of ciprofloxacin. • Well 4: 0.125 mg/ml of ciprofloxacin. • Well 5: 31 μM of I.12. • Well 6: No molecule.
The cultures are incubated at 37° C. with shaking at 400 rpm. Samples are taken every hour for the first 6 hours, and at 22 hours. The live bacteria are counted by culturing on a dish after dilutions of the cultures.

[2] = tested on: S. aureus 1199B (strain overexpressing NorA); experiment: Chessboard method, I.12 combined with antibiotics; assay type: cell-based, Staphylococcus aureus
VISA (strain V4) = experiment: Chessboard method, I.12 combined with ciprofloxacin (FIC); assay type: cell-based, Staphylococcus aureus; details: I.12 and ciprofloxacin; FIC≦0.5 = synergy
[3] = tested on: Enterococcus faecalis (VSE, VRE strains); experiment: Spectrum of activity: I.12 + ciprofloxacin, E. faecalis strains; assay type: cell-based; details: for Number of sensitive strains / Percentage of sensitive strains: ciprofloxacin + I.12
Experimental: (§1) The antibiotic used is ciprofloxacin with the same dilution as in section B.1. The compound I.12 is also used under the same conditions as in section B.1.
(§2) Fifty-six strains belonging to 19 genera were used (TABLE 6).
(§3) Nine of these strains are ATCC strains and 47 are of clinical origins and come from the Centre de Biologie Est [Eastern Biological Center] in Bron. Eighteen staphylococcal strains are tested: 1 strain of S. epidermidis, 2 strains of S. aureus, 10 MRSA (methicillin-resistant S. aureus) and 5 VISA (vancomycin intermediate sensitivity S. aureus). Sixteen enterococcal strains are also tested, i.e. 9 E. faecium and 7 E. faecalis. The latter 2 species grouped together 2 vancomycin-sensitive strains (1 per species), and 14 resistant strains (VRE, respectively 8 E. faecium and 6 E. faecalis).
(§4) This potentiating effect is evaluated as previously. However, the growth of certain microorganisms (Streptococcus pneumoniae, S. agalactiae, S. pyogenes, Corynebacterium amycolatum and Listeria monocytogenes) in liquid medium requires defibrinated horse blood lysed in 50% of sterile osmosed water via a succession of 7 freezings (−20° C.)/thawing (ambient temperature). The 50% blood is then centrifuged at ambient temperature at 12 000 rpm for 20 min. The supernatant is introduced into sterile, additive-free MH II in an amount of 5% by volume.

[4] = tested on: Enterococcus faecium (VSE, VRE strains); experiment: Spectrum of activity: I.12 + ciprofloxacin, E. faecium strains; assay type: cell-based; details: for Number of sensitive strains / Percentage of sensitive strains: ciprofloxacin + I.12
Experimental: as §1, §2, §3, §4

S. aureus ATCC 29213 [5] = experiment: Chessboard method, I.12 combined with antibiotics (FIC); assay type: cell-based, Staphylococcus aureus; details: I.12 and ciprofloxacin; FIC≦0.5 = synergy
Experimental: The antibiotics used are erythromycin, ciprofloxacin, vancomycin, tetracycline and oxacillin.
The sensitivity of S. aureus ATCC 29213 to the combination of the antibiotic molecules ciprofloxacin and the compound I.12 and the effect of each of the two molecules on the activity of the other are determined using the chessboard method. This method is carried out in a round-bottomed 96-well plate (12 columns by 8 rows). Various concentrations of ciprofloxacin and of compound I.12 are obtained by a dilution of their stock solutions in MH II broth. Fifty microliters of the dilution range of the compound I.12 are deposited in each well of columns 1 to 10, each row corresponding to a dilution of this compound. Fifty microliters of the dilution range of ciprofloxacin are deposited in the wells of columns 2 to 10, each column corresponding to a dilution. This same dilution range of ciprofloxacin is also prepared in column 11. Fifty microliters of MH II broth are deposited in the wells of columns 1 and 11. Finally, 100 μl of bacterial suspension at 10^6 CFU (Colony-Forming Units)/ml are introduced in each well of columns 1 to 10 (final concentration of bacteria: 5×10^5 CFU/ml).
The plate is read visually. […] The fractional inhibitory concentration (FIC) is calculated by adding the FIC of the compound I.12 (FICI.12) and the FIC of ciprofloxacin (FICcipro) according to the following formulae: […]

[6] = tested on: Staphylococcus epidermidis; experiment: Spectrum of activity: I.12 + ciprofloxacin, S. epidermidis; assay type: cell-based
Experimental: as §1, §2, §3, §4

[7] = tested on: Staphylococcus aureus (MSSA, MRSA, VISA strains); experiment: Spectrum of activity: I.12 + ciprofloxacin, S. aureus strains; assay type: cell-based; details: for Number of sensitive strains / Percentage of sensitive strains: ciprofloxacin + I.12
Experimental: as §1, §2, §3, §4

[8] = tested on: Fifty-six strains belonging to 19 genera; experiment: Spectrum of activity: potentiating effect of compound I.12 on ciprofloxacin (MIC method); assay type: cell-based
Experimental: as §1, §2, §3, §4

MRSA (strain ST07 1012) = experiment: Chessboard method, I.12 combined with ciprofloxacin (FIC); assay type: cell-based, Staphylococcus aureus; details: I.12 and ciprofloxacin; FIC≦0.5 = synergy
[9] = tested on: S. aureus K 1712 (strain without NorA pump); experiment: Chessboard method, I.12 combined with antibiotics; assay type: cell-based, Staphylococcus aureus; details: each ATB
[10] = tested on: S. aureus 1199b overexpressing NorA; experiment: Supplemental EPI tests: potentiation of antibiotic MICs; assay type: cell-based, Staphylococcus aureus; details: for potentiating activity in the presence of tetracycline and of erythromycin: 1199b strain
Experimental: (§5) The molecules of which the EPI effect was evaluated are: I.1 (24 μmol/l), I.6 (16 μmol/l) and I.14 (31 μmol/l).
(§6) The antibiotics with which these molecules were combined are: ciprofloxacin and norfloxacin; tetracycline; oxacillin; erythromycin and vancomycin.
(§7) The bacterial strains tested are S. aureusATCC 29213; S. aureus 1199b overexpressing NorA and also S. aureus 1199, the strain from which it is derived; S. aureus K1712 not expressing NorA and also S. aureus 8325.4 (the strain from which it is derived).
(§8) The methodology used is based on the MIC technique described previously.

[11] = tested on: S. aureus ATCC 29213, 1199b, 1199, K1712, 8325.4; experiment: as above; assay type: cell-based, Staphylococcus aureus
Experimental: as §5, §6, §7, §8

[12] = tested on: S. aureus K1712 not expressing NorA; experiment: as above; assay type: cell-based, Staphylococcus aureus; details: strain not expressing NorA
Experimental: as §5, §6, §7, §8

S. aureus ATCC 29213 [13] = experiment: Antibiotic activity of the compounds alone (MIC technique); assay type: cell-based, Staphylococcus aureus; details: compound alone, 18-24 h at 37° C., MH II medium
Experimental: All the compounds according to the invention are solubilized in dimethylsufoxide (DMSO). For each compound, the highest concentration usable during the experiments is determined by taking into account the toxicity of the solvent (final concentration of DMSO in contact with the bacteria of less than 3%) and also the capacity of the compound to solubilize in Mueller Hinton II (MH II) media. This is because some compounds precipitate during dilutions of solutions based on DMSO in MH II media. The strain for screening the compounds is a strain of Staphylococcus aureus from the American Type Culture Collection or ATCC, called S. aureus ATCC 29213. The antibiotic activity of a molecule is evaluated using the MIC technique. The MIC of a molecule is determined in a 96-well microplate, in MH II liquid medium according to the protocol of the CASFM and of the CLSI. A dilution range of the molecule is prepared beforehand in MH II medium. In each well, 100 μl of a bacterial suspension of SI aureus ATCC 29213 (10^6 CFU/ml), 50 μl of the dilution range of the compound tested and 50 μl of MH II are mixed. After 18-24 h of incubation at 37° C., the molecules having shown an inhibition of bacterial growth are recorded as having an antibiotic activity. The lowest concentration of compound for which no bacterial growth is observed is the MIC (lowest concentration inhibiting the growth of the bacteria).

With `COc1cc(O)c2c(C)c(-c3ccccc3)c(=O)[nH]c2c1` [compound I.12, 5-hydroxy-7-methoxy-4-methyl-3-phenylquinolin-2(1H)-one] the “reduction of CFU/ml of the combination versus the most active molecule alone (synergistic effect)” value (S. aureus ATCC 29213 [1]) was no less than 2 log10, the “interaction with antibiotics (chessboard)” value [2] was “highly synergistic combination” and the “FIC (fractional inhibitory concentration)” value (VISA (strain V4)) was no more than 0.5. For the same compound, the “sensitive strains / strains tested, combination with ciprofloxacin” value (shortened to “sensitive strains / strains tested”) ([3]; E. faecalis (4 are VREs)) was 5/7, the “Number of sensitive strains” value ([3]; E. faecalis VRE, 6 tested) was 4 and the “Percentage of sensitive strains” value ([3]; E. faecalis VRE) was 67%. The “Number of sensitive strains” value ([3]; E. faecalis VSE, 1 tested) was 1, the “Percentage of sensitive strains” value ([3]; E. faecalis VSE) was 100% and the “sensitive strains / strains tested” value ([4]; E. faecium (the 5 being VREs)) was 5/9. For the same compound, the “Number of sensitive strains” value ([4]; E. faecium VRE, 8 tested) was 5, the “Percentage of sensitive strains” value ([4]; E. faecium VRE) was 62.5% and the “Number of sensitive strains” value ([4]; E. faecium VSE, 1 tested) was 0. The “Percentage of sensitive strains” value ([4]; E. faecium VSE) was 0, the “factor by which the ciprofloxacin MIC is divided in the presence of the compound” value ([4]; two E. faecium VRE strains not listed in the 28, weakly sensitive) was no less than 2 and the “FIC (fractional inhibitory concentration)” value (S. aureus ATCC 29213 [5]) was no more than 0.5. The “sensitive strains / strains tested” value ([6]; S. epidermidis) was 1/1, the “Number of sensitive strains” value ([6]; S. epidermidis sensitive strain, 1 tested, ciprofloxacin + I.12) was 1 and the “Percentage of sensitive strains” value ([6]; S. epidermidis sensitive strain, ciprofloxacin + I.12) was 100%. For the same compound, the “Number of sensitive strains” value ([7]; MRSA, 10 strains tested) was 10, the “Percentage of sensitive strains” value ([7]; MRSA) was 100% and the “Number of sensitive strains” value ([7]; MSSA, 2 strains tested) was 2. For the same compound, the “Percentage of sensitive strains” value ([7]; MSSA) was 100%, the “sensitive strains / strains tested” value ([7]; S. aureus sensitive to conventional antibiotics) was 2/2 and the “sensitive strains / strains tested” value ([7]; S. aureus with reduced sensitivity to vancomycin (VISA)) was 5/5. The “Number of sensitive strains” value ([7]; VISA, 5 strains tested) was 5, the “Percentage of sensitive strains” value ([7]; VISA) was 100% and the “sensitive strains / strains tested” value ([7]; methicillin-resistant S. aureus (MRSA)) was 10/10. The “number of strains more sensitive to ciprofloxacin when the compound is combined” value ([8]; among the 56 bacterial strains tested) was 28, the “factor by which the ciprofloxacin MICs are divided in the presence of the compound” value ([8]; each of the 28 sensitive strains, except one) was 16 and the “factor by which the ciprofloxacin MIC is divided in the presence of the compound” value ([8]; the one exception among the 28 sensitive strains) was no less than 4. For the same compound, the “FIC (fractional inhibitory concentration)” value (MRSA (strain ST07 1012)) was no more than 0.5 and the “interaction with antibiotics (chessboard)” value [9] was “absence of interaction”.

In the case of `COc1cc(OC)c2c(C)c(-c3c[nH]c4ccccc34)c(=O)[nH]c2c1` [compound I.6, 3-(1H-indol-3-yl)-5,7-dimethoxy-4-methylquinolin-2(1H)-one], the “potentiating activity in the presence of tetracycline and of erythromycin” value [10] is reported as “does not exist”, the “potentiating activity combined with one of the two fluoroquinolones” value ([10]; norfloxacin or ciprofloxacin, strain overexpressing NorA) is reported as “particularly notable” and the “potentiating activity coupled to non-fluoroquinolone antibiotics” value ([11]; tetracycline, oxacillin, erythromycin, vancomycin) is reported as “not very effective”. For the same compound, the “potentiating activity of the combinations” value [12] was “zero”.

For `Cc1c(-c2ccccc2)c(=O)[nH]c2cc(O)cc(O)c12` [compound I.13, 5,7-dihydroxy-4-methyl-3-phenylquinolin-2(1H)-one], the “antibiotic activity alone, concentration (MIC)” value (S. aureus ATCC 29213 [13]) was 155 µM.

For `COc1cc(OC)c2c(C)c(-c3cccc(Cl)c3)c(=O)[nH]c2c1` [compound I.1, 3-(3-chlorophenyl)-5,7-dimethoxy-4-methylquinolin-2(1H)-one], the “EPI effects of the compound in combination with antibiotics” value ([11]; I.1 at 24 μmol/l) was “minor”.

In the case of `COc1cc(O)c2c(C)c(Cc3ccccc3)c(=O)[nH]c2c1` [compound I.14, 3-benzyl-5-hydroxy-7-methoxy-4-methylquinolin-2(1H)-one], the melting point is reported as > 278 °C (dec.), the “potentiating activity in the presence of tetracycline and of erythromycin” value [10] is reported as “weak activity” and the “improvement in the MICs (fold) in the presence of norfloxacin and of ciprofloxacin” value ([11]; I.1 24 μmol/l, I.6 16 μmol/l, I.14 31 μmol/l) is reported as “results are identical”.

For `COc1cc(O)c2c3c(c(=O)[nH]c2c1)CCC3` [compound I.15, 2,3-dihydro-9-hydroxy-7-methoxy-1H-cyclopenta[c]quinolin-4(5H)-one], the melting point was 189 to 190 °C.
